Read-outs that look alike come from different tables or passages of the source. Marks after values point to notes of the source that are not given here.
Columns and labels:
Assay type in all cases: cell-based
[1] = tested on: human influenza virus H1N1 A/WSN/33 strain; conditions: 50 mM MBCD
PRRSV-RESP strain = test: In vitro infectivity of PRRSV, plaque titration on Marc-145 cells; conditions: for In Vitro Infectivity: 60 minutes at 37° C.
Procedure: The PRRSV are titrated for in vitro infectivity using the following procedure. Using the cell culture and transfer procedures above, Marc-145 cells are suspended in DMEM containing 10% FBS at a final density of 1.5×10^5 cell/mL. Two mL of the Marc-145 cell suspension are added to each well of a 6-well plate, and the plates are incubated overnight at 37° C. with 5% CO2. Virus samples are thawed in a 37° C. water bath, followed by centrifugation at 500×g for 10 minutes at 4° C. A 1/10 dilution series of viruses is prepared and stored at 4° C. until use, using EMEM as the dilution buffer.
When the Marc-145 cells are at least 90% confluent, the medium is removed, and 0.5 mL dilution buffer and 0.5 mL of the virus dilution are added into each well. For the negative control, 1.0 mL dilution buffer is used. The plates are gently shaken immediately after each dilution is added. Plates are incubated for 60-90 minutes at 37° C. in 5% CO2 and rocked every 15 minutes. Each well of each 6-well plate is then overlaid with 3 mL of a 1:4 mixture of 2.5% low melting point agarose in PBS solution and dilution buffer at 37° C. The plates are incubated at room temperature for 15 minutes to allow the overlay mixture to solidify, and then the plates are incubated at 37° C. with 5% CO2 for 96 hours.
Plaques are visualized using the following procedure. After the plaques are fully developed (96 hours post-infection), 1 mL 4% paraformaldehyde is added, and the plates are incubated at room temperature for 1 hour. Solubilized agarose is discarded, and 0.5 mL of 0.5% crystal violet is added to each well. The number of plaques is counted after 15 minutes of incubation with the crystal violet and converted to a titer based on the dilution factors.
Solvent and mock treatments are conducted according to the following procedure. One hundred μL aliquots of the concentrated PRRSV stock at about 1×10^9 PFU/mL are diluted into 900 μL PBS in Eppendorf tubes to achieve a final titer of 1.0-5.0×10^8 PFU/mL. […] Eppendorf tubes are then capped and sealed with parafilm. All the samples are secured in an SHZ-82 constant-temperature orbital air-bath shaker (Changzhou Guohua Appliance Co., China) preheated to 37° C. The solvent- and mock-treated samples are spun at an orbital rotation speed of 220 rpm at 37° C. for the desired time. The respective samples are spun in a micro-centrifuge for 1 minute, and the supernatants containing IFV are transferred to ultracentrifuge tubes. Tubes are centrifuged at 100,000×g (OPTIMA™ L-100XP centrifuge; Beckman Coulter, Inc., Indianapolis Ind.) for 30 minutes to pellet the PRRSV, and the supernatants are discarded. The PRRSV pellets are resuspended in 200 μL PBS and stored at −80° C. until further analyses.
The protein content of the delipidated and mock-treated PRRSV is determined using a BCA assay (PIERCE™ BCA Protein Assay Kit) according to the manufacturer's instructions. The cholesterol content also is determined using a cholesterol assay (Amplex® Red Cholesterol Assay Kit, Life Technologies, Grand Island, N.Y.) performed according to manufacturer's instruction. In vitro infectivity is measured using the same procedures as set forth above.
After ultracentrifugation, the mock-treated and delipidated samples are tested for in vitro infectivity in the Marc-145 cells, and protein and cholesterol contents are determined, using the procedures set forth above.

PRRSV-RESP = test: Blind passage assay of delipidated PRRSV on Marc-145 cells; conditions: 100 mM MBCD for 90 minutes
PRRSV strain ND99-14 = test: Inactivation kinetics of PRRSV, live virus TCID50 on MARC145 cells
Procedure: Inactivation kinetics experiments were conducted using PRRSV strain ND99-14, described in application U.S. Ser. No. 62/296,658, filed Feb. 18, 2016. […] Room temperature is between about 20° C. and about 25° C., and optimally between about 22° C. and about 24° C.
[…] […] Aliquots for each time point were stored at 4° C. and −70° C. until further use.
After the 24 hour sample was collected, virus was transferred to a new container. […] […] […] Aliquots for each time point were stored at 4° C. and −70° C. until further use.
Ten-fold serial dilutions (10^−1-10^−9) of mock inactivated and inactivated virus were added to MARC145 cells cultured on 96 well plates. The plates were incubated at 37° C. and 5% CO2 for 96 hours to allow live virus to infect cells. Virus replication was determined by observation of cytopathic effect (CPE) due to virus infection of the MARC145 cells. Each well containing a virus dilution was scored either positive or negative with regards to CPE and the resulting numbers of positive or negatice wells for each dilution were used to determine the TCID50/mL using the Reed-Muench TCID50 calculation. The mock inactivated virus was treated to the same media and temperature conditions as the inactivated virus without the addition of the inactivation agent.

PRRSV strain SD 11-21 = test: Inactivation of vaccine virus stock, TCID50 virus titration; conditions: PRRSV SD 11-21, final 30 mM MBCD in two additions, 48 hours at room temperature

## methyl β-cyclodextrin [MBCD]
[1]; 37° C., 30 minutes, […]
  IFV infectivity reduced, compared to the mock-treatment: 2250 fold
[1]; IFV, 37° C., 30 minutes
  PFU/mL: 4.0 × 10^5 PFU/mL
[1]; IFV, 45 minute treatment
  less infectious in vitro, compared to the mock treatment: over 10,000 fold
[1]; IFV, end-over-end rotation at 37° C. for 45 minutes
  PFU/mL: 1.0 × 10^3 PFU/mL
PRRSV-RESP strain; 100 mM MBCD for 90 minutes
  titer of delipidated PRRSV sample: under the limit of detection
PRRSV-RESP strain; PRRSV-RESP, 5 mM MBCD
  In Vitro Infectivity: 1.4 × 10^7 PFU/mL
PRRSV-RESP strain; PRRSV-RESP, 10 mM MBCD
  In Vitro Infectivity: 7.0 × 10^6 PFU/mL
PRRSV-RESP strain; PRRSV-RESP, 20 mM MBCD
  In Vitro Infectivity: 2.8 × 10^6 PFU/mL
PRRSV-RESP strain; PRRSV-RESP, 30 mM MBCD
  In Vitro Infectivity: 1.2 × 10^5 PFU/mL
PRRSV-RESP strain; PRRSV-RESP, 50 mM MBCD, 60 min at 37° C.
  PRRSV infectivity reduced: about 380 fold
PRRSV-RESP strain; PRRSV-RESP, 50 mM MBCD
  In Vitro Infectivity: 4.2 × 10^4 PFU/mL
PRRSV-RESP
  plaques detected by the blind passage assay: no plaques are detected
PRRSV strain ND99-14; 20 mM MBCD, after 15 minutes of incubation
  live virus reduced: approximately 2.5 logs
PRRSV strain ND99-14; 20 mM MBCD, room temperature, hour 0.25, samples stored at 4° C.
  PRRS virus titer: 5.8^a Log10 TCID50/mL
PRRSV strain ND99-14; 20 mM MBCD, room temperature, hour 0.25, samples stored at −70° C.
  PRRS virus titer: 3.3 Log10 TCID50/mL
PRRSV strain ND99-14; 20 mM MBCD, room temperature, hour 4, samples stored at 4° C.
  PRRS virus titer: 5.8 Log10 TCID50/mL
PRRSV strain ND99-14; 20 mM MBCD, room temperature, hour 8, samples stored at 4° C.
  PRRS virus titer: 5.9 Log10 TCID50/mL
PRRSV strain ND99-14; 20 mM MBCD, room temperature, hour 8, samples stored at −70° C.
  PRRS virus titer: 2.8 Log10 TCID50/mL
PRRSV strain ND99-14; 20 mM MBCD, room temperature, hour 12, samples stored at 4° C.
  PRRS virus titer: 5.6 Log10 TCID50/mL
PRRSV strain ND99-14; 20 mM MBCD, room temperature, hour 12, samples stored at −70° C.
  PRRS virus titer: 3.2 Log10 TCID50/mL
PRRSV strain ND99-14; 20 mM MBCD, room temperature, hour 16, samples stored at 4° C.
  PRRS virus titer: 5.6 Log10 TCID50/mL
PRRSV strain ND99-14; 20 mM MBCD, room temperature, hour 16, samples stored at −70° C.
  PRRS virus titer: 3.2 Log10 TCID50/mL
PRRSV strain ND99-14; 20 mM MBCD, room temperature, hour 20, samples stored at 4° C.
  PRRS virus titer: 5.6 Log10 TCID50/mL
PRRSV strain ND99-14; 20 mM MBCD, room temperature, hour 20, samples stored at −70° C.
  PRRS virus titer: 3.4 Log10 TCID50/mL
PRRSV strain ND99-14; 20 mM MBCD, room temperature, hour 24, samples stored at 4° C.
  PRRS virus titer: 5.6 Log10 TCID50/mL
PRRSV strain ND99-14; 20 mM MBCD, room temperature, hour 24, samples stored at −70° C.
  PRRS virus titer: 3.6 Log10 TCID50/mL
PRRSV strain ND99-14; 40 mM MBCD (second 20 mM added at 24 h), hour 30, samples stored at 4° C.
  PRRS virus titer: 0 Log10 TCID50/mL
PRRSV strain ND99-14; 40 mM MBCD (second 20 mM added at 24 h), hour 30, samples stored at −70° C.
  PRRS virus titer: 0 Log10 TCID50/mL
PRRSV strain ND99-14; 40 mM MBCD (second 20 mM added at 24 h), hour 36, samples stored at 4° C.
  PRRS virus titer: 0 Log10 TCID50/mL
PRRSV strain ND99-14; 40 mM MBCD (second 20 mM added at 24 h), hour 36, samples stored at −70° C.
  PRRS virus titer: 0 Log10 TCID50/mL
PRRSV strain ND99-14; 40 mM MBCD (second 20 mM added at 24 h), hour 42, samples stored at 4° C.
  PRRS virus titer: 0 Log10 TCID50/mL
PRRSV strain ND99-14; 40 mM MBCD (second 20 mM added at 24 h), hour 42, samples stored at −70° C.
  PRRS virus titer: 0 Log10 TCID50/mL
PRRSV strain ND99-14; 40 mM MBCD (second 20 mM added at 24 h), hour 48, samples stored at 4° C.
  PRRS virus titer: 0 Log10 TCID50/mL
PRRSV strain ND99-14; 40 mM MBCD (second 20 mM added at 24 h), hour 48, samples stored at −70° C.
  PRRS virus titer: 0 Log10 TCID50/mL
PRRSV strain ND99-14; 40 mM MBCD (second 20 mM added at 24 h), hour 56, samples stored at 4° C.
  PRRS virus titer: 0 Log10 TCID50/mL
PRRSV strain ND99-14; 40 mM MBCD (second 20 mM added at 24 h), hour 56, samples stored at −70° C.
  PRRS virus titer: 0 Log10 TCID50/mL
PRRSV strain ND99-14; 40 mM MBCD (second 20 mM added at 24 h), hour 64, samples stored at 4° C.
  PRRS virus titer: 0 Log10 TCID50/mL
PRRSV strain ND99-14; 40 mM MBCD (second 20 mM added at 24 h), hour 64, samples stored at −70° C.
  PRRS virus titer: 0 Log10 TCID50/mL
PRRSV strain ND99-14; 40 mM MBCD (second 20 mM added at 24 h), hour 72, samples stored at 4° C.
  PRRS virus titer: 0 Log10 TCID50/mL
PRRSV strain ND99-14; 40 mM MBCD (second 20 mM added at 24 h), hour 72, samples stored at −70° C.
  PRRS virus titer: 0 Log10 TCID50/mL
PRRSV strain ND99-14; 40 mM MBCD (second 20 mM added at 24 h), hour 84, samples stored at 4° C.
  PRRS virus titer: 0 Log10 TCID50/mL
PRRSV strain ND99-14; 40 mM MBCD (second 20 mM added at 24 h), hour 84, samples stored at −70° C.
  PRRS virus titer: 0 Log10 TCID50/mL
PRRSV strain ND99-14; 40 mM MBCD (second 20 mM added at 24 h), hour 96, samples stored at 4° C.
  PRRS virus titer: 0 Log10 TCID50/mL
PRRSV strain ND99-14; 40 mM MBCD (second 20 mM added at 24 h), hour 96, samples stored at −70° C.
  PRRS virus titer: 0 Log10 TCID50/mL
PRRSV strain ND99-14; 40 mM MBCD added in a 2 step process
  titer of PRRS virus that could be inactivated: at least 8 log10 TCID50/mL
PRRSV strain ND99-14; second addition of 20 mM MBCD at 24 hours, next time point (30 hours)
  virus level after second addition of MBCD (in words): undetectable levels
PRRSV strain ND99-14; time point samples with detectable live virus
  less virus when stored at −70° C. versus 4° C.: at least 100 fold
PRRSV strain SD 11-21
  live virus in MBCD-inactivated virus solution: no live virus was detected

From patent US10420831B2, “Inactivation of viruses by delipidation” (priority 2016, dated 2019)
